Data: the supplement of paper PMC10307832

What was measured:
Test in all cases: relative viability (nuclei count vs DMSO), 5 days (fraction); higher = more cells survive
XMD14-99 + Linsitinib = compound: CN1CCN(CC1)C2=CC(=C(C=C2)NC3=NC(=C(S3)C(=O)C4=C(C=CC=C4Cl)Cl)N)OC [XMD14-99] + C[C@]1(O)C[C@@H](c2nc(-c3ccc4ccc(-c5ccccc5)nc4c3)c3c(N)nccn32)C1 [Linsitinib] (partner 1 µM)
Summary of the method: (§1)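 Lung cancer cell lines in 1536-well plates were dosed by pin tool the day after seeding, either with one drug alone or with a fixed anchor-drug dose plus five library-drug doses (not always all listed) in √10 steps. After 5 days, cells were fixed and their nuclei stained in one step (final 0.05% Triton X-100, 1% formaldehyde, 1 ug/ml Hoechst), then counted on 4× images. Relative viability is the nuclei count in treated wells divided by that in vehicle wells. Values are medians of duplicate plates.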

XMD14-99 + Tozasertib = compound: CN1CCN(CC1)C2=CC(=C(C=C2)NC3=NC(=C(S3)C(=O)C4=C(C=CC=C4Cl)Cl)N)OC [XMD14-99] + Cc1cc(Nc2cc(N3CCN(C)CC3)nc(Sc3ccc(NC(=O)C4CC4)cc3)n2)n[nH]1 [Tozasertib] (partner 0.1 µM)
Summary of the method: as §1

XMD14-99 + Bortezomib = compound: CN1CCN(CC1)C2=CC(=C(C=C2)NC3=NC(=C(S3)C(=O)C4=C(C=CC=C4Cl)Cl)N)OC [XMD14-99] + CC(C)C[C@H](NC(=O)[C@H](Cc1ccccc1)NC(=O)c1cnccn1)B(O)O [Bortezomib] (partner 0.002 µM)
Summary of the method: as §1

XMD14-99 + Olaparib = compound: CN1CCN(CC1)C2=CC(=C(C=C2)NC3=NC(=C(S3)C(=O)C4=C(C=CC=C4Cl)Cl)N)OC [XMD14-99] + O=C(c1cc(Cc2n[nH]c(=O)c3ccccc23)ccc1F)N1CCN(C(=O)C2CC2)CC1 [Olaparib] (partner 8 µM)
Summary of the method: as §1

XMD14-99 + Lapatinib = compound: CN1CCN(CC1)C2=CC(=C(C=C2)NC3=NC(=C(S3)C(=O)C4=C(C=CC=C4Cl)Cl)N)OC [XMD14-99] + CS(=O)(=O)CCNCc1ccc(-c2ccc3ncnc(Nc4ccc(OCc5cccc(F)c5)c(Cl)c4)c3c2)o1 [Lapatinib] (partner 2 µM)
Summary of the method: as §1

| Cell Line | relative viability (XMD14-99 + Linsitinib; first compound 0.08 µM) | relative viability (XMD14-99 + Linsitinib; first compound 0.8 µM) | relative viability (XMD14-99 + Linsitinib; first compound 2.53 µM) | relative viability (XMD14-99 + Linsitinib; first compound 8 µM) | relative viability (XMD14-99 + Tozasertib; first compound 0.08 µM) | relative viability (XMD14-99 + Tozasertib; first compound 0.8 µM) | relative viability (XMD14-99 + Tozasertib; first compound 2.53 µM) | relative viability (XMD14-99 + Tozasertib; first compound 8 µM) | relative viability (XMD14-99 + Bortezomib; first compound 0.08 µM) | relative viability (XMD14-99 + Bortezomib; first compound 0.8 µM) | relative viability (XMD14-99 + Bortezomib; first compound 2.53 µM) | relative viability (XMD14-99 + Bortezomib; first compound 8 µM) | relative viability (XMD14-99 + Olaparib; first compound 0.08 µM) | relative viability (XMD14-99 + Olaparib; first compound 0.8 µM) | relative viability (XMD14-99 + Olaparib; first compound 2.53 µM) | relative viability (XMD14-99 + Olaparib; first compound 8 µM) | relative viability (XMD14-99 + Lapatinib; first compound 0.08 µM) | relative viability (XMD14-99 + Lapatinib; first compound 0.8 µM) | relative viability (XMD14-99 + Lapatinib; first compound 2.53 µM) | relative viability (XMD14-99 + Lapatinib; first compound 8 µM) |
| --- | --- | --- | --- | --- | --- | --- | --- | --- | --- | --- | --- | --- | --- | --- | --- | --- | --- | --- | --- | --- |
| NCI-H441 | 0.719 | 0.52 | 0.528 | 0.382 | 0.693 | 0.599 | 0.554 | 0.354 | 0.562 | 0.653 | 0.473 | 0.587 | 0.526 | 0.519 | 0.529 | 0.455 |  |  |  |  |
| NCI-H2342 |  |  |  |  | 0.483 | 0.628 | 0.591 | 0.516 |  |  |  |  | 0.548 | 0.459 | 0.484 | 0.409 |  |  |  |  |
| NCI-H1792 | 0.637 | 0.522 | 0.432 | 0.311 |  |  |  |  | 0.982 | 0.888 | 0.849 | 0.66 | 0.486 | 0.383 | 0.265 | 0.0886 | 0.995 | 0.89 | 0.912 | 0.536 |
| ChaGo-K-1 |  |  |  |  | 0.217 | 0.199 | 0.208 | 0.226 | 1.06 | 1.02 | 0.964 | 0.92 | 0.473 | 0.438 | 0.403 | 0.292 |  |  |  |  |
| LK-2 | 0.398 | 0.369 | 0.659 | 0.471 | 0.171 | 0.185 | 0.171 | 0.192 |  |  |  |  | 0.751 | 0.591 | 0.685 | 0.419 | 0.801 | 1.01 | 0.823 | 0.949 |
